Experimental data reported in PMC6430017, “Structural and chemical insights into the covalent-allosteric inhibition of the protein kinase Akt” (Chemical Science, 2019).

Key:
Assay in all cases: SelectScreen Z'LYTE kinase profiling
Format in all cases: biochemical
Conditions in all cases: ATP at apparent KM
BRSK1 (SAD1) = biological target: T1, BRSK1 (SAD1) (Homo sapiens, UniProt Q8TDC3)
T1 sequence (Q8TDC3 1-778): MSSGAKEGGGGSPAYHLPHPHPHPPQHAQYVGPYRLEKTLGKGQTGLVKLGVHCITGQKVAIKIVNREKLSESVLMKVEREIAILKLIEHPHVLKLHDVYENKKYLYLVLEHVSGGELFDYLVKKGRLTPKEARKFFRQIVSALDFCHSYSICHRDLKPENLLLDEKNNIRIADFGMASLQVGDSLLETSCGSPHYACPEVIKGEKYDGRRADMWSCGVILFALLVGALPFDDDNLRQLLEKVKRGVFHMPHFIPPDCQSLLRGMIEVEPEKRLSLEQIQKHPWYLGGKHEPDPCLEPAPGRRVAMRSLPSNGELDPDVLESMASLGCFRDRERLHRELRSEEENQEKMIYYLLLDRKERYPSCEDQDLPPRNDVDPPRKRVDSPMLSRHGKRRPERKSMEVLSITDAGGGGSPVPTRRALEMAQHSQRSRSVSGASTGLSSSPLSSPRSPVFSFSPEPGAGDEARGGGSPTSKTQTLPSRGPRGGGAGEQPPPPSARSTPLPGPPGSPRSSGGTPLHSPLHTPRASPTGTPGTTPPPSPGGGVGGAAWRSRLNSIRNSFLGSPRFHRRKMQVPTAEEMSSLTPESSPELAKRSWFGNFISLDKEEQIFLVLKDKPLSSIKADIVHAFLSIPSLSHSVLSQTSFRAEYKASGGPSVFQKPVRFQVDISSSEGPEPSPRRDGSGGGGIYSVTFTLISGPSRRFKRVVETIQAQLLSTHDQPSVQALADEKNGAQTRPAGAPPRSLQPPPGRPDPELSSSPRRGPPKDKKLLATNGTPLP
Procedure: (§1) protein kinases at a compound concentration of 1 µM. Measurements were performed in duplicates
(§2) and at the particular apparent ATP KM of each individual kinase employing the activity based Z’LYTE®
(§3) kinase assay of the SelectScreen® Kinase Profiling Services (ThermoFisher Scientific).
(§4) kinases at a compound concentration of 1 µM. Measurements were performed in duplicates and at
(§5) the particular apparent ATP KM of each individual kinase employing the activity based Z’LYTE® kinase
(§6) assay of the SelectScreen® Kinase Profiling Services (ThermoFisher Scientific).

PLK1 = PLK1 (Homo sapiens, UniProt P53350)
CHEK2 (CHK2) = CHEK2 (CHK2) (Homo sapiens, UniProt O96017)
Procedure: as §1, §2, §3, §4, §5, §6

AURKB (Aurora B) = AURKB (Aurora B) (Homo sapiens, UniProt Q96GD4)
Procedure: as §1, §2, §3, §4, §5, §6

STK4 (MST1) = biological target: T2, STK4 (MST1) (Homo sapiens, UniProt Q13043)
T2 sequence (Q13043 1-487): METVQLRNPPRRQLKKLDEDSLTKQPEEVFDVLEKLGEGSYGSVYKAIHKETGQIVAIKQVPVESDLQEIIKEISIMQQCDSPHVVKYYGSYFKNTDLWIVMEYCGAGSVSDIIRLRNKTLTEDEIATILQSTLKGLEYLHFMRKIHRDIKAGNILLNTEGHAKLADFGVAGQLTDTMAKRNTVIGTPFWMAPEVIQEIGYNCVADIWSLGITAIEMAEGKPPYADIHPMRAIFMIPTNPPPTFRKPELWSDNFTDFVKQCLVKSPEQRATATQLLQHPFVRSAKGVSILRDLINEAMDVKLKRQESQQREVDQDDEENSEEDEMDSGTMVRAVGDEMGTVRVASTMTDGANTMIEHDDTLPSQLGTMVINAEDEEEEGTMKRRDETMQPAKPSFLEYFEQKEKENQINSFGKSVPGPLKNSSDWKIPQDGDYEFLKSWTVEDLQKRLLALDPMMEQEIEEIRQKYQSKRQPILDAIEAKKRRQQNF

PRKD2 (PKD2) = biological target: T3, PRKD2 (PKD2) (Homo sapiens, UniProt Q9BZL6)
T3 sequence (Q9BZL6 1-878): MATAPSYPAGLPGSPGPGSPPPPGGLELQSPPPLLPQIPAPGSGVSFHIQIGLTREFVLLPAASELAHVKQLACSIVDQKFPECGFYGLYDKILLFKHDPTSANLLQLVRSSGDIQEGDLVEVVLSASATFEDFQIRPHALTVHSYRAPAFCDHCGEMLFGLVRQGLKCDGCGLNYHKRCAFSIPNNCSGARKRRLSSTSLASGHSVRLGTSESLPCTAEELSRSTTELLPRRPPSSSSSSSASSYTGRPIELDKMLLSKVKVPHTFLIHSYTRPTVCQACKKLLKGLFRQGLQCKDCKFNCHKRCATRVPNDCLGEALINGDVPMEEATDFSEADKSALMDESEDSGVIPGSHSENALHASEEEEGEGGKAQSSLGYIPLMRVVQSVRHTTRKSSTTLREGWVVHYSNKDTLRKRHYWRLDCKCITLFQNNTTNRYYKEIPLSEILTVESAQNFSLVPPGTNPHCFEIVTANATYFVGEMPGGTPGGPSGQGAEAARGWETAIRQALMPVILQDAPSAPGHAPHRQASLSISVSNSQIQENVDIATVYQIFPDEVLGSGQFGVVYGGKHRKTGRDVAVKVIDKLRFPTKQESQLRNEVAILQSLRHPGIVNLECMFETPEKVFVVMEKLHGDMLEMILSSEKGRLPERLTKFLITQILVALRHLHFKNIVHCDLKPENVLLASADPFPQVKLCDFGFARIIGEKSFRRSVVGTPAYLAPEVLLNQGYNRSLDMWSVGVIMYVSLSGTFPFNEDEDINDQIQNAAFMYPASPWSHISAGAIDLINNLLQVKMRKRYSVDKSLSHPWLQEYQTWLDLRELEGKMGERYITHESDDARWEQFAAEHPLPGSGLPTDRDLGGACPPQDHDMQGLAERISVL
Procedure: as §1, §2, §3, §4, §5, §6

CDK2/cyclin A = CDK2/cyclin A (Homo sapiens, UniProt P24941)
Procedure: as §1, §2, §3, §4, §5, §6

CHEK1 (CHK1) = biological target: T4, CHEK1 (CHK1) (Homo sapiens, UniProt O14757)
T4 sequence (O14757 1-476): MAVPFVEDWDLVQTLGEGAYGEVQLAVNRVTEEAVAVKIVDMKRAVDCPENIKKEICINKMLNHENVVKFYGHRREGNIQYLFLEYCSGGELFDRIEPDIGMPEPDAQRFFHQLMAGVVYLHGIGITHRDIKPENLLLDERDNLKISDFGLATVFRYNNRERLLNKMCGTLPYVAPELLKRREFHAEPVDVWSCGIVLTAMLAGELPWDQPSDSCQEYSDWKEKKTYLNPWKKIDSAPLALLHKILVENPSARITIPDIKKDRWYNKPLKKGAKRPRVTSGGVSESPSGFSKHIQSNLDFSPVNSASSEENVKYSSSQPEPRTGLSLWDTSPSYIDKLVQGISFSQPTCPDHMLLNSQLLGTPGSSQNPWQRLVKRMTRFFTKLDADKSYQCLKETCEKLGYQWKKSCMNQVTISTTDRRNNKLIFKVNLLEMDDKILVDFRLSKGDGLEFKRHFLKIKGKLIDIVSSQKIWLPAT
Procedure: as §1, §2, §3, §4, §5, §6

Chain of AURKB (Aurora B) (Q96GD4 whole entry): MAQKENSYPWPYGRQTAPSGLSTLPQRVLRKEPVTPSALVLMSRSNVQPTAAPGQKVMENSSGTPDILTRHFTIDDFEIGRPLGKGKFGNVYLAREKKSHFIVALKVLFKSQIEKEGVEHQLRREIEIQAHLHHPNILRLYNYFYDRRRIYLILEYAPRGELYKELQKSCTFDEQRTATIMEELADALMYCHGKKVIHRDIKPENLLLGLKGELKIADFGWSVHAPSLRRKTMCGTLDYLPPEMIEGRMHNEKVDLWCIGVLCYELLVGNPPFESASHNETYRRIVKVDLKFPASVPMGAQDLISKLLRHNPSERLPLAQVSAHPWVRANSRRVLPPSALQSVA
Chain of CHEK2 (CHK2) (O96017 whole entry): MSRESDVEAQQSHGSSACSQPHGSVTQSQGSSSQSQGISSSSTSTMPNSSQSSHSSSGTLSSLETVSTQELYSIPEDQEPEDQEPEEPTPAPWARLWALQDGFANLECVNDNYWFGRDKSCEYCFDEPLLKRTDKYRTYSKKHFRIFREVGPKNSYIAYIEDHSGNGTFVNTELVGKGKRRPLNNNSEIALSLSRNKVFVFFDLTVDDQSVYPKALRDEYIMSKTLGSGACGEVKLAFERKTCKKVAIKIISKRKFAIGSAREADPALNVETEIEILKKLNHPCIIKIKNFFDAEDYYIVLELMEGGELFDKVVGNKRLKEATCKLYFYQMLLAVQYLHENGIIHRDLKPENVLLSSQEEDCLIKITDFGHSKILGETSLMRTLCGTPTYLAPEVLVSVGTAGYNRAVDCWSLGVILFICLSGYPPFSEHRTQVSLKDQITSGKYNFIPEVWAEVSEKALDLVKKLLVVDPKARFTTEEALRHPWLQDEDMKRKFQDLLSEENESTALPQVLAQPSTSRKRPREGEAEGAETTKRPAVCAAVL
Chain of PLK1 (P53350 whole entry): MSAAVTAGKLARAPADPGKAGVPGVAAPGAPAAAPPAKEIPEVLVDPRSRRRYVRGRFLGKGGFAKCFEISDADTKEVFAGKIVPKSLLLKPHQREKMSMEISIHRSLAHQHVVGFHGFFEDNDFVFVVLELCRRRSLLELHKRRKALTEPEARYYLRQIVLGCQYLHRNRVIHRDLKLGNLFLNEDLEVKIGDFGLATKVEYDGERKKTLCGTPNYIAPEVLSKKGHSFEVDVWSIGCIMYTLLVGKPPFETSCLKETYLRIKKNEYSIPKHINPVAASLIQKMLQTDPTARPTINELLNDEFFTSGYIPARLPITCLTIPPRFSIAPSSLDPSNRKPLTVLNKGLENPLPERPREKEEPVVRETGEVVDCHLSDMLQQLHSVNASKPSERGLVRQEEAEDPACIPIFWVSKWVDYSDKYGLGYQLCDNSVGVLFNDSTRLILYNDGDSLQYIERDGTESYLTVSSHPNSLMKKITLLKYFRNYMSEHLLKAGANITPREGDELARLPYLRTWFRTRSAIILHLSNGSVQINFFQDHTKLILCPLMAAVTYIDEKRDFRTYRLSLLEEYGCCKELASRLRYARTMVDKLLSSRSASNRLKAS

Compound | inhibition at 1 µM (BRSK1 (SAD1)) [%] | inhibition at 1 µM (PLK1) [%] | inhibition at 1 µM (CHEK2 (CHK2)) [%] | inhibition at 1 µM (AURKB (Aurora B)) [%] | inhibition at 1 µM (STK4 (MST1)) [%] | inhibition at 1 µM (PRKD2 (PKD2)) [%] | inhibition at 1 µM (CDK2/cyclin A) [%] | inhibition at 1 µM (CHEK1 (CHK1)) [%]
C=CC(=O)Nc1cccc(C(=O)NC2CCN(Cc3ccc(-c4nc5cc[nH]c(=O)c5cc4-c4ccccc4)cc3)CC2)c1 [30b] | 7 | 6 | -12 | 2 | 7 | 4 | 11 | 9
C=CC(=O)Nc1cc(NC(=O)NC2CCN(Cc3ccc(-c4nc5cc[nH]c(=O)c5cc4-c4ccccc4)cc3)CC2)ccc1Cl [compound 27] | 16 | 1 | 1 | 2 | 14 | 5 | 6 | 8
C=CC(=O)Nc1ccc2c(c1)n(C1CCN(Cc3ccc(-c4nc5cc[nH]c(=O)c5cc4-c4ccccc4)cc3)CC1)c(=O)n2C [24b] | 2 | 5 | -13 | 0 | 6 | 3 | 7 | -3
